Results: patent US9445588B2, “Methods for increasing oil palm yield” (Valent BioSciences Corporation, priority 2014, dated 2016)

Tests used:
[1] = test system: oil palm; test: Field study, repeat bunch-directed preharvest application of AVG every 10 days (Example 1); type: in vivo, oil palm (bi-clonal DxP palms)
Description: Plant material: A field study was executed in a plantation in Malaysia to compare the effects of repeat bunch-directed applications of AVG to the untreated control (UTC). In this study, AVG was provided in a formulation as AVG-HCl at a concentration of 20% w/wt. For both treatments, 148 palms per block with 4 rows per block covering about 1.1 hectare were used. The bi-clonal DxP palms were 3 to 4 years old.
Treatment application: A motorized mist blower was used to apply AVG (500 ppm, at 600 mL/palm or 300 mg/palm/application) to the lower and most mature rows of bunches of each palm.
The time required for 360 degree spray application around each palm was about 30 seconds. Sprays were applied every 10 days which coincided with harvest frequency in this block. Treatments were applied from September to November 2013.
Harvest: Harvest picks occurred every 10 days. Bunches were harvested at the point of initial fruit drop. At harvest, UTC bunches had lost an average of 34.8 fruit/bunch and the AVG-treated bunches had lost 33.9 fruits/bunch. Bunch weight results were recorded over six harvests picks for the 10 representative palms that were tagged for each treatment.
Oil content: At each harvest pick beginning with the fourth harvest pick interval, bunches were selected and individually bagged, tagged, and transferred to the laboratory for determination of oil content. Bunch samples from each harvest were analyzed in the laboratory for oil content using standard methods (Blaak, et al., 1963, J. West African Institute of Oil Palm Research, 4:146-155).
Oil yield: Oil yield was determined as kg oil/bunch=oil content*bunch wt. […] Oil yield was 2.85 kg/bunch for the AVG treatment and 2.56 kg/bunch for the UTC.

[2] = test system: oil palm; test: Second field study, repeat preharvest AVG sprays every 20 days, harvest 10 days after treatment (Example 2); type: in vivo, oil palm (bi-clonal DxP palms); details: AVG 500 ppm
Description: Plant material: A second field study was executed in a plantation in Malaysia to compare the effects of repeat broadcast directed bunch applications of AVG to the untreated control (UTC). For both treatments, 148 palms per block with 4 rows per block covering about 1.1 ha were used. The bi-clonal DxP palms were 3 to 4 years old. Treatment application: A motorized mist blower was used to apply AVG (500 ppm at 600 mL/plant or 300 mg/palm/application) to the lower and most mature rows of bunches of each palm plant. The time required for 360 degree spray application per palm plant was about 30 seconds. Treatments were applied every 20 days and harvests of treated palms were 10 days after treatments. Untreated bunches were harvested every 10 days. Treatments were applied from September to November 2013. Oil yield: Oil yield was determined as kg oil/bunch=oil content*bunch wt. […] Oil yield was 2.80 kg/bunch for the AVG treatment and 2.51 kg/bunch for the UTC.

[3] = test system: oil palm; test: Oil quality (free fatty acid content) of oil from AVG-HCl treated oil palms; type: in vivo; details: Rath and Shashikant 2014, Valent BioSciences technical information
[4] = test system: oil palm fruit; details: preharvest application to attached bunches of oil palm fruit; cited from earlier work

Structure (SMILES): NCCO/C=C/[C@H](N)C(=O)O (stereo in doubt) [AVG, [S]-trans-2-amino-4-(2-aminoethoxy)-3-butenoic acid]
- Average Oil Content ([1]; AVG 500 ppm, 600 mL/palm (300 mg/palm/application), sprays every 10 days, bunches from fourth harvest pick on): 0.284 oil wt/bunch wt
- Oil Yield (oil content*bunch wt) ([1]; AVG 500 ppm, 600 mL/palm, sprays every 10 days): 2.85 kg oil/bunch
- Average Bunch Weight ([1]; AVG 500 ppm, 600 mL/palm, sprays every 10 days, six harvest picks, 10 tagged palms): 10.02 kg/bunch
- Average fruit lost per bunch at harvest ([1]; bunches harvested at the point of initial fruit drop, UTC 34.8 fruit/bunch): 33.9 fruits/bunch
- Average Bunch Weight ([2]; 600 mL/plant): 9.36 kg/bunch
- Oil Yield (oil content*bunch wt) ([2]; 600 mL/plant): 2.80 kg oil/bunch
- Average Oil Content ([2]; 600 mL/plant (300 mg/palm/application)): 0.299 oil wt/bunch wt

Structure (SMILES): Cl.NCCO/C=C/[C@H](N)C(=O)O [AVG-HCl]
- Free fatty acid content of the oil [3]: did not have increased free fatty acid content

Structure (SMILES): O=P(O)(O)CCCl [ethephon, 2-chloroethyl phosphonic acid]
- Increase in oil content [4]: 7%
